From patent publication EP0428268A2, “Pharmaceutical phenylpyridone derivatives” (SMITH KLINE & FRENCH LABORATORIES LIMITED, priority 1989, dated 1991)
Where two headings read alike, the source gives them in different places. Values belong to the compound of their own block, whether it stands above or below them.

Columns and labels:
[1] = test system: spontaneous colonic activity; assay: Inhibition of spontaneous colonic activity in vitro (isolated distal colon, organ bath); parameters: species or system guinea-pigs; conditions: concentration reducing spontaneous colonic activity by 50%, guinea-pig distal colon, Krebs solution at 37°C, read-out: IC₅₀
From the text: Male albino guinea-pigs (300 - 400g) were killed by a blow to the back of the head and exsanguinated. A 2cm long segment of the proximal part of the hypogastric loop of the distal colon was rapidly dissected out and placed in oxygenated (95% O₂, 5% CO₂) modified warm Krebs solution. The tissue was cleaned out with Krebs and the adjoining mesentery discarded. Cotton was then tied to each end and the colon was attached to a tissue holder in an organ bath containing modified oxygenated Krebs solution at 37°C. The other end of the tissue was tied to an isometric transducer and placed under 1g tension. Force developed by the muscle was detected by the transducer, and recorded on a multitrace pen recorder. Spontaneous colonic activity, as assessed by the contraction distance over a five minute period, was subjected to computer analysis.
The tissues were allowed to settle at a resting tension of 1g for 1 hour, during which time they were washed at 15 minute intervals. Three samples of pre-dose activity were taken and averaged. The tissues were then dosed and two samples of post-dose activity were taken. The lowest value was used to calculate the percentage relaxation, and log dose response curves were constructed. The tissues were washed 10 minutes after dosing and left for 15 minutes to settle prior to the next control period. […]

ovalbumen = assay: Anti-allergic activity (ovalbumen challenge in sensitised animals, tracheal inflation pressure); assay type: in vivo, Duncan Hartley guinea-pigs; conditions: dose of 17 µmol/kg i.v.; ovalbumen challenge 30 minutes following drug administration
Experimental: Male Duncan Hartley guinea-pigs (250-300 g) were sensitised to ovalbumen by i.p. injection of 2 ml of 50mg.ml⁻¹ i.p. and 0.2 ml s.c. Three weeks later they were anaesthetised with 60mg.kg⁻¹ sodium pentabarbitone. The trachea was cannulated and the animal respired at a rate of 40 breaths per minute and at an initial tracheal inflation pressure of 16 mmHg. Tracheal inflation pressure was measured by a transducer connected to a side arm of the respiration circuit. The carotid artery was cannulated for the measurement of blood pressure and the signal was used to trigger an instantaneous rate meter. A jugular vein was cannulated for the administration of drug and allergen. After surgery the animals were allowed to stabilise and the drug was administered i.v. as a bolus. Following this, ovalbumen 1mg.kg⁻¹ was injected i.v. as the antigen challenge either 2, 15 or 30 minutes following drug treatment and the peak bronchoconstrictor response recorded. For the control group ovalbumen only was given. One ovalbumen challenge per guinea-pig was used and n = 6 for each time point. The percentage increase in tracheal inflation pressure was calculated.

IC50 ([1]; Cavia porcellus): 3 µM
Compound: CCCOc1cc(OC)ccc1-c1ccc(C(N)=O)c(=O)[nH]1 [Example 9(b), 1,2-Dihydro-6-(4-methoxy-2-propoxyphenyl)-2-oxo-3-pyridine carboxamide]

Compound: CC(C)COc1ccc(F)cc1-c1ccc(C(N)=O)c(=O)[nH]1 [Example 25, 6-(5-Fluoro-2-(2-methylpropoxy)phenyl)-1,2-dihydro-2-oxo-pyridine-3-carboxamide]
inhibition of the control bronchoconstrictor response (ovalbumen): 40%

IC50 [1]: 1.1 µM
Compound: CCCOc1ccc(C(N)=O)cc1-c1ccc(C(N)=O)c(=O)[nH]1 [Example 13, 3-(3-Carboxamido-1,2-dihydro-2-oxo-6-pyidinyl)-4-propoxybenzamide]
